# Data as given in PMC5947527 (Chemical Science, 2015).
# “Also recorded” adds a separate entry of the source. Non-standard residues stand in square brackets, D forms with d. Residues, ends and D or L forms follow the SMILES beside them. *: point of attachment. NBD = O=[N+]([O-])c1ccc(*)c2nonc12; Nle = CCCC[C@H](N)C(=O)O; Ahx = NCCCCCC(=O)O
# Tests used:
# [1] = test system: methicillin-sensitive Staphylococcus aureus (MSSA), Pseudomonas aeruginosa and Klebsiella pneumoniae; assay: Confocal bacterial labelling, UBI-2 vs UBI-3 on a panel of bacteria; type: cell-based; conditions: fluorescence normalised to UBI-2, mean ± SEM, n ≥ 3
# Method: Fig. 3 UBI-3 retains specificity and sensitivity for bacterial labelling. […] Panels show bacteria labelled with either UBI-2 or UBI-3 with quantification of fluorescence (values normalised to UBI-2) (Bars represent mean, error bars represent standard error of mean, n ≥ 3, ns = not significant, scale bar = 10 μm). (B) Quantification from confocal images of UBI-3 (10 μM) imaging a panel of bacteria (statistical analyses shown compared to unlabelled bacteria, n ≥ 3 for each bacteria, *** = p < 0.001). […] [MRSA: methicillin-resistant Staphylococcus aureus, MSSA: methicillin-sensitive Staphylococcus aureus]. […]
# (§1) Confocal Analysis and Fluorescence Quantification: 8-Well Lab-Tek II Confocal Chambers (VWR, PA, USA) were coated in fibronectin (for neutrophil experiments) or poly-d-lysine (for bacteria) at 37 °C for 20 minutes, then washed in PBS prior to bacterial innoculation. […] Exposure to 488 nm light was limited to 5% of the maximum laser power in order to minimize toxicity. ‘Green’ fluorescence (for FAM and NBD) was excited with a dedicated 488 nm line and emitted light detected with meta detector (500-530 nM).
# (§2) Syto nuclear and dyes were excited with a dedicated 543 nm line, and emitted light detected with meta detector (570-610 nM). Fields of view were chosen based on the counterstain and at least three fields of view were recorded for each condition. […]
# [2] = test system: P. aeruginosa; assay: Confocal labelling of bacteria in the presence of human ARDS BALF; type: cell-based; conditions: 10 μM, n = 3 PBS, n = 5 ARDS, p < 0.001
# Source text: To determine the ability of UBI-3 to image bacteria in the continued presence of a complex inflammatory environment, bacteria were labelled with UBI-3 in the presence of broncho-alveolar lavage fluid (BALF) retrieved from ventilated ICU patients with Acute Respiratory Distress Syndrome (ARDS). ARDS BALF was utilised as ARDS is a severe life threatening pulmonary syndrome, characterized by a massive proteolytic and oxidative inflammatory environment within the distal alveolar region.[14] […] To design out susceptible amino acid cleavage points, a number of modifications were made (Table 1) and the functional consequences assessed. […]
# as §1, §2
# [3] = Chemical stability on storage in phosphate buffered saline at 37 °C (HPLC); type: physicochemical; conditions: 1 mg mL–1 in PBS, day 0 vs day 3, HPLC, detection at 380 nm
# Method: This modification is particularly of relevance due to the expected in vivo inflammatory oxidative environment within an infected pneumonic lung due to infiltrating host inflammatory cells such as neutrophils,[13] and therefore all subsequent modifications incorporated Nle in place of Met.
# HPLC chromatograms (gradient acetonitrile + 0.1% formic acid/water + 0.1% formic acid from 5/95 to 95/5 over 10 min, then isocratic for 4 min; detection at 380 nm). UBI-2 (1 mg mL^–1 in PBS, upper panels) and UBI-3 (1 mg mL^–1 in PBS, lower panels) at (A) day 0 and (B) day 3 after incubation at 37 °C.
compound,measurement,setting,value
CCCC[C@H](NC(=O)[C@H](CCCNC(=N)N)NC(=O)[C@H](CCCNC(=N)N)NC(=O)[C@H](CCCCN)NC(=O)[C@H](C)NC(=O)[C@H](CCCNC(=N)N)NC(=O)CNC(=O)[C@@H](NC(=O)CCCCCNc1ccc([N+](=O)[O-])c2nonc12)[C@@H](C)O)C(=O)N[C@@H](CCC(N)=O)C(=O)N[C@@H](Cc1ccc(O)cc1)C(=O)N[C@@H](CC(N)=O)C(=O)N[C@@H](CCCNC(=N)N)C(=O)N[C@@H](CCCNC(=N)N)C(N)=O [UBI-3] ({NBD-Ahx}-TGRAKRR[Nle]QYNRR-NH2),"bacterial labelling, Met vs Nle variant",[1],retained bacterial labelling; also recorded: same fluorescence intensity
same,fluorescent labelling intensity of bacteria in ARDS BALF compared to PBS,[2],significant reduction in the fluorescent labelling intensity; also recorded: significantly reduced intensity when compared to PBS
same,chemical stability in PBS at 37 °C,[3],prevented by substitution of the Met to Nle
